Key:
PPARα = details: Forman et al., 1995; cited from earlier work
TNFα = assay: Mouse model of preterm labour (LPS): placental TNFα by ELISA; type: in vivo; details: gestation day 16 mice, 6 hours after intrauterine LPS + 15d-PGJ2 vs LPS + vehicle
Experimental: (§1) Surgery was performed on timed pregnant MF1 mice at day 16 of gestation. After deep maternal anaesthesia was attained, a minilaparotomy was performed in the lower abdomen. The uterine horns were exposed through the incision and preterm labour was induced by the intrauterine injection of 250 μg lipopolysaccharide (LPS, Sigma) into the gravid horn. This was immediately followed by injection of 4 μg […] (Cayman), or an equal volume of vehicle (methyl acetate), at the same site. The uterus was then returned to the abdomen and the fascia and skin were closed with continuous vicryl sutures.
Mice were sacrificed 6 hours after injection of LPS±15d-PGJ2. Placentae were washed in phosphate buffered saline (PBS), flash frozen in liquid nitrogen and stored at −80° C. until further processing. Fetuses were washed in PBS, then immediately fixed in 4% parafornaldellyde for 24 h and then stored in 70% ethanol until further processing. […]
(§2) Homogenate levels of Interlekin-1β (IL-1β) and tumour necrosis factor α (TNFα) were determined in placental lysates by ELISA (R and D systems) according to manufacturers instructions. Total protein concentrations were determined for each homogenate and IL-1β and TNFα levels were expressed as pg/mg total protein. […] Phosphorylated p65 (phospho-p65) was detected by western immunoblotting using a specific antibody (Santa Cruz) and quantified by densitometric analysis.

phospho-p65 = assay: Mouse model of preterm labour (LPS): placental phospho-p65 by western immunoblot; type: in vivo; details: gestation day 16 mice, 6 hours after intrauterine 250 μg LPS + 15d-PGJ2, p<0.05
Experimental: Relative concentrations of phospho-p65 in placental homogenates collected from gestation day 16 mice 6 hours after intrauterine injection of 250 μg LPS+vehicle or 250 μg LPS+[…] 15d-PGJ2. * denotes statistically significant difference (t-test (p<0.05)).
as §1
(§3) Mice were sacrificed 6 hours after injection of LPS±15d-PGJ2. […]
as §2

IL-1β = assay: Mouse model of preterm labour (LPS): placental IL-1β by ELISA; type: in vivo; details: gestation day 16 mice, 6 hours after intrauterine 250 μg LPS + 4 μg 15d-PGJ2, p<0.05
Experimental: Concentrations of IL-1β in placental homogenates collected from gestation day 16 mice 6 hours after intrauterine injection of 250 μg LPS+vehicle or 250 μg LPS+4 μg 15d-PGJ2. * denotes statistically significant difference (t-test (p<0.05)).
as §1, §3, §2

NF-κB = assay: Western immunoblot of p65, p50, IκB in amnion cell extracts; type: cell-based, human; details: L−, L+ amnion cells; for IL-1β-induced p65 nuclear translocation: treated 2 h, IL-1β 15 min
Experimental: Western immunoblots of nuclear or cytosolic protein extracts from (A) myometrial cells, (B) L− amnion cells, and (C) L+ amnion cells treated with 15dPGJ2 or vehicle for 2 h±IL-1β stimulation (15 min). Blots probed with antibodies against p65, p50 or IκBα.
Placentae were obtained from patients at term either at elective Caesarean section prior to labour (L−) or following spontaneous labour onset and vaginal delivery (L+). Amnion cells were prepared as described in Bennett et al., (1989). Briefly, the amnion was separated from the placenta, washed 3× in PBS, cut into strips, and incubated in 0.5 mM EDTA in PBS for 15 min. The strips were washed in PBS 2× and digested with 2.5 mg/ml dispase in serum-free DMEM for 35 min at 37° C. The amnion was then shaken vigorously in DMEM, 10% FCS to dissociate the cells, the remaining strips discarded, and the cell suspension pelleted at 175 g for 10 min and cultured in DMEM, 10% FCS (Sigma), 1% L-glutamine, 1% penicillin-streptomycin.
Nuclear and cytosolic protein extracts were obtained from cultured amnion cells as described by Schreiber et al (1989). For nuclear/cytosolic fractionation, confluent cell monolayers were scraped and lysed using a buffer containing 10 mM HEPES, 10 mM KCl, 0.1 mM EDTA, 0.1 mM EGTA, 2 mM DTT, 1% (v/v) NP-40 and complete protease inhibitor tablets (CPIs, Roche), diluted to manufacturer's instructions. Cell lysates were incubated on ice for 10 min and NP-40 added to a final concentration of 1% (v/v). Lysates were vortexed for 10 secs and centrifuged for 30 secs at 4° C., 12000 g. The supernatants were retained as the cytosolic protein extracts. The pellets were resuspended in buffer containing 10 mM HEPES, 10 mM KCl, 0.1 mM EDTA, 0.1 mM EGTA, 2 mM DTT, 400 mM NaCl, 1% NP-40 (v/v) and CPIs. Samples were shaken vigorously for 15 min in an ice bath. The nuclear protein extracts were obtained in the supernatant following a 5 min centrifugation at 4° C., 12000 g.
Protein samples (20-70 μg) were mixed with Laemmli sample buffer (1:1) containing β-mercaptoethanol (5%), and boiled for 5 min. Proteins were then separated by SDS-PAGE (12-14% gels) and transferred onto PVDF membrane (Amersham Pharmacia Biotech). The membranes were blocked overnight in 5% non-fat milk prepared in PBS-T buffer, at 4° C. The blots were incubated with the primary antibody in 1% non-fat milk in PBS-T buffer for 1 h, and washed three times (10 min each) in PBS-T with vigorous shaking. The blots were then incubated with HRP-conjugated secondary antibody (diluted 1:2000 in 1% non-fat milk in PBS-T buffer) for 1 h and washed three times (10 min each) in PBS-T. Signal detection was achieved using enhanced chemi-luminescence (ECL plus system, Amersham Pharmacia Biotech) according to manufacturer's instructions.
30-50 μg protein extracts were subjected to SDS-PAGE and Western immuno-blotting. Secondary antibodies were IgG-HRP and ECL Plus detection kit (Amersham Pharmacia Biotech, Amersham Place, Little Chalfont, Bucks, HP7 9NA) was used for visualisation.

For `CCCCCC=CC=C1C(=O)C=C[C@@H]1CC=CCCCC(=O)O` [15d-PGJ2, 15-deoxy-Δ^12,14prostaglandin J2], the “Transactivation of PPAR-α” value (PPARα) is listed as “more weakly than PPAR-γ”, the “TNFα levels in placentae according to drug treatment” value (TNFα) is listed as “not significantly altered” and the “phospho-p65 levels lower in proximal placentae vs LPS+vehicle” value (phospho-p65) is listed as “approximately 35%”. For the same compound, the “Levels of IL-1β lower in proximal placentae vs LPS+vehicle” value (IL-1β) was “approximately 40%”, the “IL-1β-induced IκBα degradation” value (NF-κB) was “inhibition” and the “IL-1β-induced IκBβ degradation” value (NF-κB) was “inhibition”. For the same compound, the “IL-1β-induced p50 phosphorylation” value (NF-κB) was “inhibition”, the “IL-1β-induced p65 nuclear translocation” value (NF-κB) was “inhibited” and the “IL-1β-induced p65 nuclear translocation” value (NF-κB; listed as 15dPGJ2) was “inhibition”.
